Among the data in ChEMBL document CHEMBL4622875, “(3,3″)-Linked Biflavanones from Ouratea spectabilis and Their Effects on the Release of Proinflammatory Cytokines in THP-1 Cells” (J Nat Prod, 2020) are viability, Activity and IC50 values, retold here.

A short description of series [1]: Cytotoxicity against human THP1 cells assessed as cell viability at 10 to 90 uM incubated for 18 hrs by sulforhodamine B assay relative to control. It is filed as cell-based. To be noted: THP-1 cells, read-out: Activity. Background: Sulforhodamine B stains cellular protein and so reports cell mass.
In series [2] the test system is THP-1. Description: Antiinflammatory activity in human THP1 cells assessed as reduction in LPS-induced TNF secretion at 10 to 90 uM preincubated for 3 hrs followed by LPS stimulation and measured after 18 hrs by ELISA. The series is classed as functional, cell-based. (In general: ELISA stands for enzyme-linked immunosorbent assay.)
The test system of series [3] is THP-1. The series can be described thus: Antiinflammatory activity in human THP1 cells assessed as reduction in LPS-induced IL-1beta secretion at 10 to 90 uM preincubated for 3 hrs followed by LPS stimulation and measured after 18 hrs by ELISA. It is filed as functional, cell-based.
Series [4] concerns THP-1. Description: Antiinflammatory activity in human THP1 cells assessed as reduction in LPS-induced CCL2 secretion preincubated for 3 hrs followed by LPS stimulation and measured after 18 hrs by ELISA. The series is classed as functional, cell-based.

Molecules are shown by their SMILES. Active and inactive are the calls of the source. The calls are words filed in the database; no cut-off is given here.

Take `COc1cc(O)c2c(c1)O[C@H](c1ccc(O)cc1)[C@@H]([C@H]1C(=O)c3c(O)cc(OC)cc3O[C@@H]1c1ccc(O)cc1)C2=O`: in series [1], the viability at 18 h, up to 90 µM was greater than 90%. Further, the outcome in the series on THP-1 [2] and with THP-1 [3] was inactive. In the series on THP-1 [4], the IC50 turned out to be 3.1 µM.

Regarding `COc1cc(O)c2c(c1)O[C@H](c1ccc(O)cc1)[C@H]([C@@H]1C(=O)c3c(O)cc(OC)cc3O[C@@H]1c1ccc(O)cc1)C2=O`, in series [1], the viability at 18 h, up to 90 µM was greater than 90%. Moreover, the result in the series with THP-1 [2] and with THP-1 [3] was inactive.

As for `O=C1c2c(O)cc(O)cc2O[C@H](c2ccc(O)cc2)[C@@H]1[C@@H]1C(=O)c2c(O)cc(O)cc2O[C@@H]1c1ccc(O)cc1` [NEOCHAMAEJASMIN A], the viability at 18 h, up to 90 µM in series [1] was greater than 90%. Besides, the result in the series with THP-1 [2] and in the series on THP-1 [3] was inactive.

In the case of `COc1cc(O)c2c(c1)O[C@H](c1ccc(O)cc1)[C@@H]([C@H]1C(=O)c3c(O)cc(O)cc3O[C@@H]1c1ccc(O)cc1)C2=O`, the viability at 18 h, up to 90 µM in series [1] was greater than 90%. Further, the result with THP-1 [2] and with THP-1 [3] was inactive.

The term IC50 denotes the concentration that gives 50% inhibition.
